For 28 molecules, IC50 results are on record in patent US8431593B2, “Heteroaryl amide derivatives” (H. Lundbeck A/S, priority 2006, dated 2013).

Read-outs that look alike come from different tables or passages of the source.

The target in the assay is T1, P2X7 receptor (Homo sapiens, UniProt Q99572).
T1 construct: host or cells: SH-SY5Y
T1 sequence (Q99572 1-595): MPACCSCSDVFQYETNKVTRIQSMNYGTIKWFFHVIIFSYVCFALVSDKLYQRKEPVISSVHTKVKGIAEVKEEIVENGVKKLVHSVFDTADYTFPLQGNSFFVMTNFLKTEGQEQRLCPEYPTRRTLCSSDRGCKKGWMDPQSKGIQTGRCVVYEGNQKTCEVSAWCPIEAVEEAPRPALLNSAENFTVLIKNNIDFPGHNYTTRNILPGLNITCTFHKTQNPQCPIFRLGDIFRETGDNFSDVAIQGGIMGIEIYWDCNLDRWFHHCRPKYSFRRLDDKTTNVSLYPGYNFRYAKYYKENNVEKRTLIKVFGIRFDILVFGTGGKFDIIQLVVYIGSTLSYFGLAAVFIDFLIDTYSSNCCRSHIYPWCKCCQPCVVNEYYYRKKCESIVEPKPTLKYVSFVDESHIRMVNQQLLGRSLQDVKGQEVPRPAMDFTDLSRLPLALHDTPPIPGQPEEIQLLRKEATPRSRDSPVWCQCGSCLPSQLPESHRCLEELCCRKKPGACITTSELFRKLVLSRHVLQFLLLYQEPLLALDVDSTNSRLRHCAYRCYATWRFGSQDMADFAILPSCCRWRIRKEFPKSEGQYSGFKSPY
The assay is described as follows: P2X7 calcium mobilization assay, high throughput, antagonist activity (Example 4A). In kind it is cell-based. The following applies: read-out: IC50. Put shortly:
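FLIPR^TETRA calcium read-out: maximum RFU per well minus average no-agonist control, with agonist wells giving the average positive maximum. Cells seeded at 100,000/well one day ahead, dye-loaded 1 h, rinsed, then exposed to compound for 1 h at room temperature.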

[1] abbreviates: 50% decrease in the fluorescence response of cells exposed to 80 μM of 2′(3′)-O-(4-benzoyl-benzoyl)adenosine 5′-triphosphate, determined as in Example 4A.
The mark [2] stands for this setting: P2X7 calcium mobilization, Example 4A, 50% decrease in the fluorescence response of cells exposed to 80 μM of (2′(3′)-O-(4-benzoyl-benzoyl)adenosine 5′-triphosephate).

Take `O=C(Cc1cn2c(C(=O)NCCc3ccccc3)cccc2n1)NCC1(c2ccc(Cl)cc2)CCCCC1` [Compound 979, 2-[2-({[1-(4-chlorophenyl)cyclohexyl]methyl}amino)-2-oxoethyl]-N-(2-phenylethyl) imidazo[1,2-a]pyridine-5-carboxamide]: the IC50 under setting [1] was < 2000 nM.
Take `O=C(Cc1cn2c(C(=O)NC3CCCCC3)cccc2n1)NCC1(c2ccc(Cl)cc2)CCCCC1` [Compound 980, 2-[2-({[1-(4-chlorophenyl)cyclohexyl]methyl}amino)-2-oxoethyl]-N-cyclohexyl-imidazo[1,2-a]pyridine-5-carboxamide]: the IC50 under setting [1] is < 2000 nM.
Take `CC(C)CC(CNC(=O)c1cccc2nc(CCC(=O)O)cn12)c1ccc(C(F)(F)F)cc1` (stereo not shown) [Compound 986, 3-[5-({4-methyl-2-[4-(trifluoromethyl)phenyl]pentyl}carbamoyl)imidazo[1,2-a]pyridin-2-yl] propanoic acid]: the IC50 under setting [1] was < 2000 nM.
The same measure, in the same setting: the figure for `O=C(Cc1cn2c(C(=O)NCC3(N4CCOCC4)CCCCC3)cccc2n1)NC1(CO)CCCC1` [Compound 988, 2-(2-{[1-(hydroxymethyl)cyclopentyl]amino}-2-oxoethyl)-N-[(1-morpholin-4-ylcyclohexyl)methyl] imidazo[1,2-a] pyridine-5-carboxamide] is < 2000 nM; for `O=C(O)CC(Cc1ccccc1)c1cn2c(C(=O)NCC34CC5CC(CC(C5)C3)C4)cccc2n1` (stereo not shown) [Compound 994, 3-{5-[(adamantan-1-ylmethyl)carbamoyl]imidazo[1,2-a]pyridin-2-yl}-4-phenylbutanoic acid] it is < 2000 nM.
On the same count and under the same terms, the value for `COc1ccc(C2(CNC(=O)c3cccc4nc(CCC(=O)O)cn34)CCCCC2)cc1` [Compound 998, 3-[5-({[1-(4-methoxyphenyl)cyclohexyl]methyl}carbamoyl)imidazo[1,2-a]pyridin-2-yl]propanoic acid] was < 2000 nM.
Same read-out and setting: the value for `CC(C)(C)[Si](C)(C)OCCCn1ccc(NCc2cn3c(C(=O)NCC45CC6CC(CC(C6)C4)C5)cccc3n2)n1` [Compound 999, N-(adamantan-1-ylmethyl)-2-({[1-(3-{[tert-butyl (dimethyl)silyl]oxy}propyl)-1H-pyrazol-3-yl]amino}methyl) imidazo[1,2-a] pyridine-5-carboxamide] was < 2000 nM; that for `O=C(NCC12CC3CC(CC(C3)C1)C2)c1cccc2nc(CNc3ccn(CCCO)n3)cn12` [Compound 1000, N-(adamantan-1-ylmethyl)-2-({[1-(3-hydroxypropyl)-1H-pyrazol-3-yl]amino}methyl) imidazo [1,2-a]pyridine-5-carboxamide] was < 2000 nM.
As to `CCOC(=O)C(CC1CC1)c1cn2c(C(=O)NCC34CC5CC(CC(C5)C3)C4)cccc2n1` (stereo not shown) [Compound 1001, ethyl 2-{5-[(adamantan-1-ylmethyl)carbamoyl]imidazo[1,2-a]pyridin-2-yl}-3-cyclopropylpropanoate], under setting [1], the 50% inhibitory concentration (IC50) was < 2000 nM.
For the molecule `O=C(NCC12CC3CC(CC(C3)C1)C2)c1cccc2nc(C(CC3CC3)C(=O)O)cn12` (stereo not shown) [Compound 1002, 2-{5-[(adamantan-1-ylmethyl)carbamoyl]imidazo[1,2-a]pyridin-2-yl}-3-cyclopropylpropanoic acid], under setting [1], the concentration for half-maximal inhibition (IC50) was < 2000 nM.
Same read-out and setting: the figure for `O=C(NCC12CC3CC(CC(C3)C1)C2)c1cccc2nc(CC(Cc3ccccc3)C(=O)O)cn12` (stereo not shown) [Compound 1003, 3-{5-[(adamantan-1-ylmethyl)carbamoyl]imidazo[1,2-a]pyridin-2-yl}-2-benzylpropanoic acid] is < 2000 nM; for `CC(C)CC(CNC(=O)c1cccc2nc(CC(Cc3ccccc3)C(=O)O)cn12)c1ccccc1` (stereo not shown) [Compound 1004, 2-benzyl-3-{5-[(4-methyl-2-phenylpentyl)carbamoyl]imidazo[1,2-a]pyridin-2-yl} propanoic acid] it is < 2000 nM.
Take `Cc1ccc(C(CNC(=O)c2cccc3nc(CC(Cc4ccccc4)C(=O)O)cn23)CC(C)C)cc1` (stereo not shown) [Compound 1005, 2-benzyl-3-(5-{[4-methyl-2-(4-methylphenyl)pentyl]carbamoyl}imidazo[1,2-a]pyridin-2-yl)propanoic acid]: the half-maximal inhibitory concentration (IC50) under setting [1] was < 2000 nM.
The same measure, in the same setting: the figure for `CCCC(CNC(=O)c1cccc2nc(CC(Cc3ccccc3)C(=O)O)cn12)c1ccc(Cl)cc1` (stereo not shown) [Compound 1006, 2-benzyl-3-(5-{[2-(4-chlorophenyl)pentyl]carbamoyl}imidazo[1,2-a]pyridin-2-yl) propanoic acid] is < 2000 nM.
On to `CC(C)CC(CNC(=O)c1cccc2nc(CC(Cc3ccccc3)C(=O)O)cn12)c1ccc(Cl)cc1` (stereo not shown) [Compound 1007, 2-benzyl-3-(5-{[2-(4-chlorophenyl)-4-methylpentyl]carbamoyl}imidazo[1,2-a]pyridin-2-yl) propanoic acid], for which the IC50 under setting [1] was < 2000 nM.
Same read-out and setting: the figure for `CC(C)CC(CNC(=O)c1cccc2nc(CC(Cc3ccccc3)C(=O)O)cn12)c1ccc(C(F)(F)F)cc1` (stereo not shown) [Compound 1008, 2-benzyl-3-[5-({4-methyl-2-[4-(trifluoromethyl)phenyl]pentyl}carbamoyl)imidazo[1,2-a]pyridin-2-yl] propanoic acid] is < 2000 nM.
Take `CCOC(=O)C(CC1CC1)c1cn2c(C(=O)NCC3(c4ccc(Cl)cc4)CCCCC3)cccc2n1` (stereo not shown) [Compound 1009, ethyl 2-[5-({[1-(4-chlorophenyl)cyclohexyl]methyl}carbamoyl)imidazo[1,2-a]pyridin-2-yl]-3-cyclopropylpropanoate]: the IC50 under setting [1] was < 2000 nM.
For the molecule `O=C(NCC1(c2ccc(Cl)cc2)CCCCC1)c1cccc2nc(C(CC3CC3)C(=O)O)cn12` (stereo not shown) [Compound 1010, 2-[5-({[1-(4-chlorophenyl)cyclohexyl]methyl}carbamoyl)imidazo[1,2-a]pyridin-2-yl]-3-cyclopropylpropanoic acid], the IC50 under setting [1] is < 2000 nM.
Same read-out and setting: the value for `Cc1ccc(C2(CNC(=O)c3cccc4nc(CC(Cc5ccccc5)C(=O)O)cn34)CCCCC2)cc1` (stereo not shown) [Compound 1011, 2-benzyl-3-[5-({[1-(4-methylphenyl)cyclohexyl]methyl}carbamoyl)imidazo[1,2-a]pyridin-2-yl] propanoic acid] was < 2000 nM; that for `O=C(NCC1(c2ccc(F)cc2)CCCCC1)c1cccc2nc(CC(Cc3ccccc3)C(=O)O)cn12` (stereo not shown) [Compound 1012, 2-benzyl-3-[5-({[1-(4-fluorophenyl)cyclohexyl]methyl}carbamoyl)imidazo[1,2-a]pyridin-2-yl]propanoic acid] was < 2000 nM.
Same read-out and setting: the value for `O=C(NCC1(c2ccc(Cl)cc2)CCCCC1)c1cccc2nc(CC(Cc3ccccc3)C(=O)O)cn12` (stereo not shown) [Compound 1013, 2-benzyl-3-[5-({[1-(4-chlorophenyl)cyclohexyl]methyl}carbamoyl)imidazo[1,2-a]pyridin-2-yl] propanoic acid] was < 2000 nM; that for `COc1ccc(C2(CNC(=O)c3cccc4nc(CC(Cc5ccccc5)C(=O)O)cn34)CCCCC2)cc1` (stereo not shown) [Compound 1014, 2-benzyl-3-[5-({[1-(4-methoxyphenyl)cyclohexyl]methyl}carbamoyl)imidazo[1,2-a]pyridin-2-yl]propanoic acid] was < 2000 nM.
The same measure, in the same setting: the value for `CC1(C)C2CC[C@@H](CNC(=O)c3cccc4nc(C(F)(F)F)cn34)C1C2` (stereo partly drawn) [Compound 1016, N-{[(2R)-6,6-dimethylbicyclo [3.1.1]hept-2-yl]methyl}-2-(trifluoromethyl) imidazo [1,2-a]pyridine-5-carboxamide] was < 2000 nM.
For `O=C(NCC1(c2ccc(C(F)(F)F)cc2)CCCCC1)c1cccc2nc(C(F)(F)F)cn12` [Compound 1018, 2-(trifluoromethyl)-N-({1-[4-(trifluoromethyl)phenyl]cyclohexyl}methyl) imidazo [1,2-a]pyridine-5-carboxamide], under setting [2], the IC50 is < 2000 nM.
Same read-out and setting: the value for `O=C(NCC1(c2ccc(Cl)cc2)CCCCC1)c1cccc2nc(C(F)(F)F)cn12` [Compound 1020, N-{[1-(4-chlorophenyl)cyclohexyl]methyl}-2-(trifluoromethyl) imidazo [1,2-a]pyridine-5-carboxamide] was < 2000 nM.
On the same count and under the same terms, the value for `CC(C)CC(CNC(=O)c1cccc2nc(C(F)(F)F)cn12)c1ccc(Cl)cc1` (stereo not shown) [Compound 1021, N-[2-(4-chlorophenyl)-4-methylpentyl]-2-(trifluoromethyl) imidazo [1,2-a]pyridine-5-carboxamide] was < 2000 nM; that for `CC(C)CC(CNC(=O)c1cccc2nc(C(F)(F)F)cn12)c1ccc(C(F)(F)F)cc1` (stereo not shown) [Compound 1025, N-{4-methyl-2-[4-(trifluoromethyl)phenyl]pentyl}-2-(trifluoromethyl) imidazo [1,2-a]pyridine-5-carboxamide] was < 2000 nM.
`COc1ccc(C2(CNC(=O)c3cccc4nc(C(F)(F)F)cn34)CCCCC2)cc1` [Compound 1026, N-{[1-(4-methoxyphenyl)cyclohexyl]methyl}-2-(trifluoromethyl) imidazo [1,2-a]pyridine-5-carboxamide]: the 50% inhibitory concentration (IC50) under setting [2] was < 2000 nM.
